Values quoted from earlier work as cited in patent US9817001B2, “Methods for determining LDL cholesterol treatment” (Boston Heart Diagnostics Corporation, priority 2008, dated 2017).

Test system: HDL particle profile (α-1 HDL, preβ-1 HDL)
Details: for effect on preβ-1 HDL level: by decreasing CETP activity; for effect on apoA-I kinetics: in vivo

| SMILES | effect on preβ-1 HDL level | effect on apoA-I kinetics | statin effectiveness to change the HDL particle profile beneficially (statin therapy, decreasing pre-β1 and increasing α-1) |
| --- | --- | --- | --- |
| CC(C)c1nc(N(C)S(C)(=O)=O)nc(-c2ccc(F)cc2)c1/C=C/[C@@H](O)C[C@@H](O)CC(=O)O [Rosuvastatin, rosuvastatin] | significantly decrease | little or no effect | – |
| CC[C@H](C)C(=O)O[C@H]1C[C@@H](C)C=C2C=C[C@H](C)[C@H](CC[C@@H]3C[C@@H](O)CC(=O)O3)[C@H]21 [lovastatin] | – | – | almost no change |
| CC(C)c1c(C(=O)Nc2ccccc2)c(-c2ccccc2)c(-c2ccc(F)cc2)n1CC[C@@H](O)C[C@@H](O)CC(=O)O [atorvastatin] | significantly decrease | little or no effect | – |
